Like-named read-outs stand apart in the source and are kept apart here.
What was measured:
[1] = Equilibrium (binding) constant Keq of aryl hindered ureas by 1H NMR amine exchange in d-chloroform; format: physicochemical; settings: room temperature
Procedure: (§1) We designed a set of aryl ureas with distinguished electronic effect on the conjugated phenyl ring (Table 1) and the corresponding Keq were studied by ^1H NMR through exchanging of the urea with a set of bulky amines in d-chloroform. The equilibrium constant of the aryl urea bond increases as the bulkiness of the substitution on the amine decreases. […] The dissociation constant k−1 was measured by exchange study of the ureas with another amine and calculated through linear regression. Remarkably, the amine exchange of the tBEU could reach equilibrium within 20 minutes at room temperature in d-chloroform. The k−1 of tBEU with aryl substitution is two orders of magnitudes larger than the reported aliphatic urea (Table 1) and among the fastest dynamic chemistries reported so far. […] The substituent on the aryl group can remotely affect the HUB through electronic effects, thus offering an extra tunability on the Keq and k−1 of the bond, which is unprecedented in hindered urea chemistry. The large value of Keq also makes it possible to prepare large molecular weight aromatic hindered urea materials with quantitative conversion.
We designed a set of aryl ureas with distinguished electronic effect on the conjugated phenyl ring (Table 1) and the corresponding Keq were studied by ^1H NMR through exchanging of the urea with a set of bulky amines in d-chloroform. The equilibrium constant of the aryl urea bond increases as the bulkiness of the substitution on amine increases. […] The dissociation constant k−1 was measured by exchanging of the ureas with another amine and calculated through linear regression. […] In addition, the calculated k1 is larger than 10^5 M^−1·h^−1 indicating the urea formation can be completed within seconds upon mixing. […] The large value of Keq make it possible to prepare chemically stable aromatic hindered urea materials with quantitative conversion.
The binding constant (Keq) was measured through indirect method used previously. […] Briefly, the of Keq of the equilibrium was measured in d-chloroform and the Keq of each aryl urea was calculated accordingly. […]

[2] = Dissociation constant k−1 of hindered ureas by amine exchange experiment (1H NMR, d-chloroform); format: physicochemical; settings: room temperature
Procedure: as §1
The dissociation constant (k−1) of corresponding hinder ureas were determined through exchange experiment. Briefly, a d-chloroform (550 μL) solution of tBEU (0.050 mmol, ˜12 mg) was mixed with N-methyl-t-butyl-amine (1 eq). Then the mixture was monitored with ^1H NMR. The ratio of the two ureas was quantified by integration of the methyl/methylene hydrogen adjacent to the nitrogen atom. Linear regression of ln
[formula] ˜t giving the slope as the dissociation constant (k−1).
The method for tBEU was used except that 10 equivalent t-butylamine or n-butyl amine was used.
The dynamic behavior of the aromatic urea was then investigated by exchanging the tBEU with methyl-t-butylamine and the relative concentration of all species were monitored by ^1H NMR. […] In contrast, the aliphatic tBEU requires several days to reach equilibrium at 37° C. Through linear regression of the exchange component, the dissociate rate of the ureas were determined to be 5-12 h^−1 at room temperature, which is two order of magnitude higher than the aliphatic counterpart. […] SeeYing, H.; Zhang, Y.; Cheng, J. Nat. Commun. 2014, 5, 3218, which is incorporated by reference herein in its entirety.

[3] = HPLC analysis of Ph-tBEU hydrolysis kinetics in 1:1 DMSO-aqueous buffer at various pH; format: physicochemical
Procedure: FIGS. 1A to 1C depict the hydrolysis of phenyl-N-tetrabutyl-N-ethyl urea (Ph-tBEU) in 1:1 DMSO-aqueous buffer at various pH conditions at 37° C. as analyzed by HPLC. […] The dotted line marks the measured k−1 of the Ph-tBEU under the same condition through exchange with 10 equivalents of t-butyl amine.
The hydrolysis of aryl tBEU under different pH conditions was then studied in 1:1 DMSO-aqueous buffer solution at 23° C. […] Kinetic analysis of the hydrolytic kinetics confirmed that the overall urea degradation rate is determined by the urea dissociation and can be expressed as
HPLC Analysis of pH-tBEU Hydrolysis Kinetics in 50:50 DMSO-H2O at 37° C.
Ph-tBEU stock solution was prepared in DMSO as 2 mg/mL. The solution was diluted with 1:1 DMSO/buffer to 20 μg/mL ([…]) and incubated at 37° C. At specified time, the solution was analyzed by HPLC to quantify the remaining tBEU content by standard calibration curve (λabs=264 nm).
The standard sample of Ph-tBEU was prepared by diluting the stock solution with acetonitrile to a 2-fold serial dilution and analyzed instantly after preparation. The pH 1, 7, 10 buffers were prepared by adding acid/base to 1*PBS solution. pH 4 buffer was prepared by citric acid-Na2HPO4 (0.1 M). The pH of all the buffers were confirmed by pH meter prior to conducting the experiments.

[4] = aliphatic HUB, adapted from Ying et al. Nat. Commun. 2014; cited from earlier work
[5] = cited from earlier work

| Keq [1] [M⁻¹] | pH dependence of observed hydrolysis constant kobs ([3]; pH ranging from 3-11) | SMILES | k1 (calculated as Keq × k−1) [2] [M⁻¹ s⁻¹] | k−1 (dissociation rate) [2] [h⁻¹] | apparent hydrolysis constant kobs ([3]; 23° C. as printed) [h⁻¹] | Keq [4] [M⁻¹] | time for exchange to reach equilibrium ([5]; aliphatic tBEU, 37° C.) | k−1 (dissociation rate) ([5]; reported aliphatic urea) [h⁻¹] |
| --- | --- | --- | --- | --- | --- | --- | --- | --- |
| 81000 | – | CCN(C(=O)Nc1ccc(OC)cc1)C(C)(C)C [compound 1] | 250 | 11.2 | – | – | – | – |
| 360000 | independent of pH | CCN(C(=O)Nc1ccccc1)C(C)(C)C [compound 2, phenyl-N-tetrabutyl-N-ethyl urea] | 889 | 8.9 | 0.17 | – | – | – |
| 6.8e+06 | – | CCN(C(=O)Nc1ccc([N+](=O)[O-])cc1)C(C)(C)C [compound 3] | 10800 | 5.7 | – | – | – | – |
| – | – | C=C(C)C(=O)OCCNC(=O)N(CC)C(C)(C)C [compound 4] | 9.17 | – | – | 790000 | several days | 0.042 |
